Assays:
Assay in all cases: normalised viability (% of control), CellTiter-Blue; higher = more viable cells (about 100 = DMSO control)
Settings in all cases: incubation time: 72 h
BT-474 = test system: BT-474
Method in brief: (§1)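 After 72 h on compound-loaded 384-well plates, breast cancer cell lines received 2.5 µl CellTiter-Blue reagent for 2 h at 37 °C. Fluorescence at 560/590 nm was scaled per plate so that vehicle was 100 and a positive kill control was 0. The value stands for normalised viability at a single listed concentration of the series.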

BT-549 = test system: BT-549
Method in brief: as §1

CAL-148 = test system: CAL-148
Method in brief: as §1

CAL-51 = test system: CAL-51
Method in brief: as §1

CAL-85-1 = test system: CAL-85-1
Method in brief: as §1

DU-4475 = test system: DU-4475
Method in brief: as §1

HCC1143 = test system: HCC1143
Method in brief: as §1

HCC1937 = test system: HCC1937
Method in brief: as §1

HDQ-P1 = test system: HDQ-P1
Method in brief: as §1

Hs578T = test system: Hs578T
Method in brief: as §1

MDA-MB-231 = test system: MDA-MB-231
Method in brief: as §1

MDA-MB-436 = test system: MDA-MB-436
Method in brief: as §1

MDA-MB-453 = test system: MDA-MB-453
Method in brief: as §1

MDA-MB-468 = test system: MDA-MB-468
Method in brief: as §1

MFM-223 = test system: MFM-223
Method in brief: as §1

N#CC[C@H](C1CCCC1)n1cc(-c2ncnc3[nH]ccc23)cn1 [Ruxolitinib]
normalised viability (BT-474; 10 nM): 108%
normalised viability (BT-474; 1000 nM): 103%
normalised viability (BT-474; 10000 nM): 119%
normalised viability (BT-549; 10 nM): 86.3%
normalised viability (BT-549; 1000 nM): 90.9%
normalised viability (BT-549; 10000 nM): 73.4%
normalised viability (CAL-148; 3 nM): 92%
normalised viability (CAL-148; 30 nM): 82.4%
normalised viability (CAL-148; 100 nM): 94.1%
normalised viability (CAL-51; 3 nM): 84.6%
normalised viability (CAL-51; 30 nM): 97%
normalised viability (CAL-51; 100 nM): 97.4%
normalised viability (CAL-85-1; 3 nM): 114%
normalised viability (CAL-85-1; 30 nM): 90.4%
normalised viability (CAL-85-1; 100 nM): 110%
normalised viability (DU-4475; 3 nM): 103%
normalised viability (DU-4475; 30 nM): 106%
normalised viability (DU-4475; 100 nM): 121%
normalised viability (HCC1143; 10 nM): 107%
normalised viability (HCC1143; 1000 nM): 107%
normalised viability (HCC1143; 10000 nM): 98.2%
normalised viability (HCC1937; 10 nM): 114%
normalised viability (HCC1937; 1000 nM): 94.1%
normalised viability (HCC1937; 10000 nM): 74%
normalised viability (HDQ-P1; 3 nM): 84%
normalised viability (HDQ-P1; 30 nM): 83.6%
normalised viability (HDQ-P1; 100 nM): 104%
normalised viability (Hs578T; 10 nM): 108%
normalised viability (Hs578T; 1000 nM): 104%
normalised viability (Hs578T; 10000 nM): 93.5%
normalised viability (MDA-MB-231; 10 nM): 72.7%
normalised viability (MDA-MB-231; 1000 nM): 101%
normalised viability (MDA-MB-231; 10000 nM): 110%
normalised viability (MDA-MB-436; 10 nM): 93.2%
normalised viability (MDA-MB-436; 1000 nM): 112%
normalised viability (MDA-MB-436; 10000 nM): 102%
normalised viability (MDA-MB-453; 3 nM): 86.8%
normalised viability (MDA-MB-453; 30 nM): 89.2%
normalised viability (MDA-MB-453; 100 nM): 93.9%
normalised viability (MDA-MB-468; 10 nM): 90.5%
normalised viability (MDA-MB-468; 1000 nM): 104%
normalised viability (MDA-MB-468; 10000 nM): 100%
normalised viability (MFM-223; 10 nM): 101%
normalised viability (MFM-223; 1000 nM): 98.6%
normalised viability (MFM-223; 10000 nM): 75.3%

C=CC[C@@H]1/C=C(\C)C[C@H](C)C[C@H](OC)[C@H]2O[C@@](O)(C(=O)C(=O)N3CCCC[C@H]3C(=O)O[C@H](/C(C)=C/[C@@H]3CC[C@@H](O)[C@H](OC)C3)[C@H](C)[C@@H](O)CC1=O)[C@H](C)C[C@@H]2OC [Tacrolimus]
normalised viability (BT-474; 10 nM): 125%
normalised viability (BT-474; 1000 nM): 108%
normalised viability (BT-474; 10000 nM): 114%
normalised viability (BT-549; 10 nM): 89.5%
normalised viability (BT-549; 1000 nM): 103%
normalised viability (BT-549; 10000 nM): 89.8%
normalised viability (CAL-148; 3 nM): 97.3%
normalised viability (CAL-148; 30 nM): 101%
normalised viability (CAL-148; 100 nM): 101%
normalised viability (CAL-51; 3 nM): 108%
normalised viability (CAL-51; 30 nM): 103%
normalised viability (CAL-51; 100 nM): 97.7%
normalised viability (CAL-85-1; 3 nM): 104%
normalised viability (CAL-85-1; 30 nM): 92.1%
normalised viability (CAL-85-1; 100 nM): 98.5%
normalised viability (DU-4475; 3 nM): 99.8%
normalised viability (DU-4475; 30 nM): 90.9%
normalised viability (DU-4475; 100 nM): 99.5%
normalised viability (HCC1143; 10 nM): 102%
normalised viability (HCC1143; 1000 nM): 118%
normalised viability (HCC1143; 10000 nM): 102%
normalised viability (HCC1937; 10 nM): 114%
normalised viability (HCC1937; 1000 nM): 63.1%
normalised viability (HCC1937; 10000 nM): 92.5%
normalised viability (HDQ-P1; 3 nM): 116%
normalised viability (HDQ-P1; 30 nM): 120%
normalised viability (HDQ-P1; 100 nM): 133%
normalised viability (Hs578T; 10 nM): 104%
normalised viability (Hs578T; 1000 nM): 103%
normalised viability (Hs578T; 10000 nM): 87.8%
normalised viability (MDA-MB-231; 10 nM): 109%
normalised viability (MDA-MB-231; 1000 nM): 105%
normalised viability (MDA-MB-231; 10000 nM): 113%
normalised viability (MDA-MB-436; 10 nM): 116%
normalised viability (MDA-MB-436; 1000 nM): 104%
normalised viability (MDA-MB-436; 10000 nM): 108%
normalised viability (MDA-MB-453; 3 nM): 112%
normalised viability (MDA-MB-453; 30 nM): 96.8%
normalised viability (MDA-MB-453; 100 nM): 103%
normalised viability (MDA-MB-468; 10 nM): 106%
normalised viability (MDA-MB-468; 1000 nM): 118%
normalised viability (MDA-MB-468; 10000 nM): 125%
normalised viability (MFM-223; 10 nM): 112%
normalised viability (MFM-223; 1000 nM): 109%
normalised viability (MFM-223; 10000 nM): 87.6%

C[C@]1(c2nc3c(C(N)=O)cccc3[nH]2)CCCN1 [Veliparib]
normalised viability (BT-474; 10 nM): 101%
normalised viability (BT-474; 1000 nM): 103%
normalised viability (BT-474; 10000 nM): 104%
normalised viability (BT-549; 10 nM): 95.3%
normalised viability (BT-549; 1000 nM): 112%
normalised viability (BT-549; 10000 nM): 81.7%
normalised viability (CAL-148; 3 nM): 89.3%
normalised viability (CAL-148; 30 nM): 86.4%
normalised viability (CAL-148; 100 nM): 85.6%
normalised viability (CAL-51; 3 nM): 114%
normalised viability (CAL-51; 30 nM): 105%
normalised viability (CAL-51; 100 nM): 106%
normalised viability (CAL-85-1; 3 nM): 87.9%
normalised viability (CAL-85-1; 30 nM): 84.9%
normalised viability (CAL-85-1; 100 nM): 84.7%
normalised viability (DU-4475; 3 nM): 78.6%
normalised viability (DU-4475; 30 nM): 78.3%
normalised viability (DU-4475; 100 nM): 83.4%
normalised viability (HCC1143; 10 nM): 66.6%
normalised viability (HCC1143; 1000 nM): 76.4%
normalised viability (HCC1143; 10000 nM): 75.3%
normalised viability (HCC1937; 10 nM): 72.2%
normalised viability (HCC1937; 1000 nM): 70%
normalised viability (HCC1937; 10000 nM): 61.7%
normalised viability (HDQ-P1; 3 nM): 85.6%
normalised viability (HDQ-P1; 30 nM): 93.3%
normalised viability (HDQ-P1; 100 nM): 95.9%
normalised viability (Hs578T; 10 nM): 101%
normalised viability (Hs578T; 1000 nM): 99.9%
normalised viability (Hs578T; 10000 nM): 100%
normalised viability (MDA-MB-231; 10 nM): 80.8%
normalised viability (MDA-MB-231; 1000 nM): 90.3%
normalised viability (MDA-MB-231; 10000 nM): 94.8%
normalised viability (MDA-MB-436; 10 nM): 83.3%
normalised viability (MDA-MB-436; 1000 nM): 89.1%
normalised viability (MDA-MB-436; 10000 nM): 84.6%
normalised viability (MDA-MB-453; 3 nM): 109%
normalised viability (MDA-MB-453; 30 nM): 98.9%
normalised viability (MDA-MB-453; 100 nM): 94.4%
normalised viability (MDA-MB-468; 10 nM): 113%
normalised viability (MDA-MB-468; 1000 nM): 105%
normalised viability (MDA-MB-468; 10000 nM): 98.9%
normalised viability (MFM-223; 10 nM): 88.1%
normalised viability (MFM-223; 1000 nM): 90.3%
normalised viability (MFM-223; 10000 nM): 103%

CS(=O)(=O)c1ccc(C(=O)Nc2ccc(Cl)c(-c3ccccn3)c2)c(Cl)c1 [Vismodegib]
normalised viability (BT-474; 10 nM): 102%
normalised viability (BT-474; 1000 nM): 118%
normalised viability (BT-474; 10000 nM): 77.5%
normalised viability (BT-549; 10 nM): 102%
normalised viability (BT-549; 1000 nM): 112%
normalised viability (BT-549; 10000 nM): 79.2%
normalised viability (CAL-148; 3 nM): 79.8%
normalised viability (CAL-148; 30 nM): 93.5%
normalised viability (CAL-148; 100 nM): 92.2%
normalised viability (CAL-51; 3 nM): 114%
normalised viability (CAL-51; 30 nM): 104%
normalised viability (CAL-51; 100 nM): 106%
normalised viability (CAL-85-1; 3 nM): 97.9%
normalised viability (CAL-85-1; 30 nM): 93.7%
normalised viability (CAL-85-1; 100 nM): 109%
normalised viability (DU-4475; 3 nM): 107%
normalised viability (DU-4475; 30 nM): 110%
normalised viability (DU-4475; 100 nM): 110%
normalised viability (HCC1143; 10 nM): 93.1%
normalised viability (HCC1143; 1000 nM): 93.6%
normalised viability (HCC1143; 10000 nM): 92.9%
normalised viability (HCC1937; 10 nM): 57.2%
normalised viability (HCC1937; 1000 nM): 91.4%
normalised viability (HCC1937; 10000 nM): 83.9%
normalised viability (HDQ-P1; 3 nM): 100%
normalised viability (HDQ-P1; 30 nM): 96.5%
normalised viability (HDQ-P1; 100 nM): 88.8%
normalised viability (Hs578T; 10 nM): 106%
normalised viability (Hs578T; 1000 nM): 108%
normalised viability (Hs578T; 10000 nM): 93.3%
normalised viability (MDA-MB-231; 10 nM): 115%
normalised viability (MDA-MB-231; 1000 nM): 97.7%
normalised viability (MDA-MB-231; 10000 nM): 92%
normalised viability (MDA-MB-436; 10 nM): 90.9%
normalised viability (MDA-MB-436; 1000 nM): 23.6%
normalised viability (MDA-MB-436; 10000 nM): 76%
normalised viability (MDA-MB-453; 3 nM): 106%
normalised viability (MDA-MB-453; 30 nM): 113%
normalised viability (MDA-MB-453; 100 nM): 104%
normalised viability (MDA-MB-468; 10 nM): 104%
normalised viability (MDA-MB-468; 1000 nM): 103%
normalised viability (MDA-MB-468; 10000 nM): 88.7%
normalised viability (MFM-223; 10 nM): 92.4%
normalised viability (MFM-223; 1000 nM): 108%
normalised viability (MFM-223; 10000 nM): 99.6%

From the supplement of paper PMC4862054
